Assay results taken from patent US11660324B2, “Copper complexes for treatment of neurodegenerative disorders” (ALS Therapy Development Institute, priority 2019, dated 2023).

Experiments:
[1] = Pharmacokinetics of CuPTSM compared to CuATSM (plasma and spinal cord) after single oral bolus; type: in vivo; conditions: single oral bolus 30 mg/kg, SOD1^G93A mice
Description: The SOD1^G93A transgenic mouse model of ALS has been the most widely used animal model since the 1990s. The mouse was genetically engineered to overexpress a mutant form of the human Cu/Zn superoxide dismutase 1 (SOD1) gene harboring an ALS-associated glycine to alanine mutation at amino acid position 93 (G93A). Currently, the clinical strategy for the treatment of ALS with CuATSM is to escalate human dosing until ALS patients show plasma levels equivalent to those seen in mice given 30 mg/kg/day.
To compare the effects of CuPTSM to CuATSM in vivo, a single bolus of 30 mg/kg CuPTSM or 30 mg/kg CuATSM in an oral suspension of 0.5% methylcellulose/0.4% TWEEN-80/0.9% normal saline was administered to SOD1^G93A mice. Absorption half-life, elimination half-life, and Cmax measurements were taken from both plasma and spinal cord samples to measure drug exposure of CuPTSM or CuATSM for up to 6 hr after administration of drug.
Similar measurements were recorded for concentrations of CuPTSM and CuATSM in the spinal cord. […] As with the plasma concentrations, the spinal cord concentrations of CuATSM remained constant, even 6 hr after administration (FIG. 2B).

[2] = test system: mice; assay: Tolerability in mice (previous studies); type: in vivo; conditions: 30 mg/kg
[3] = Pharmacokinetic simulation of repeated dosing, linear kinetics assumed; set-up: species or system mice; conditions: simulation from single-dose PK parameters
Description: FIG. 3A is a simulation using PK parameters derived from the experiment of FIG. 1A and FIG. 1B, assuming linear pharmacokinetics. Plasma concentrations (ng/mL) in mice receiving 6 mg/kg CuPTSM, 30 mg/kg CuATSM, or 100 mg/kg CuATSM are depicted over time (hours). FIG. 3B is a simulation using PK parameters derived from the experiment of FIG. 1A and FIG. 1B, assuming linear pharmacokinetics. Spinal cord concentrations (ng/mL) in mice receiving 6 mg/kg CuPTSM, 30 mg/kg CuATSM, or 100 mg/kg CuATSM are depicted over time (hours).
Using the data and parameters derived from the above experiments using a single bolus of 6 mg/kg CuPTSM, 30 mg/kg CuATSM, or 100 mg/kg CuATSM, plasma and spinal cord concentrations were recorded on a plot over time (hours) to illustrate pharmacokinetic simulations over time. Linear kinetics were assumed. […] Similar results were obtained when concentrations were measured in spinal cord samples (FIG. 3B).

[4] = test system: SOD1^G93A mice; assay: Onset of paresis by neurological scoring; type: in vivo
Description: (§1) To test the efficacy of CuPTSM compared to CuATSM, mice were tested for delays in paresis and overall lifespan. Mice were given 6 mg/kg CuPTSM (n=32), 30 mg/kg CuATSM (n=32), and 100 mg/kg CuATSM (n=32) once a day to assess disease progression, and identify drug-induced changes in SOD1^G93A mice compared to their respective vehicle-only control mice. Neurological scoring to test the onset of paresis for each mouse was performed throughout the study according to the protocol as disclosed in Hatzipetros et al. (2015, J. Visualized Experiments. doi:10.3791/53257), incorporated herein by reference in its entirety. Briefly, mice were scored on a scale of NS 0 (pre-symptomatic) to NS 4 (humane end-point) based on a combination of a tail suspension test, a walking test, and a “righting reflex” test.
(§2) To compare the effects of CuPTSM administered at a much lower dose than CuATSM, mice were administered 6 mg/kg […] and survival and onset of paresis were measured as before.

[5] = test system: SOD1^G93A mice; assay: Survival / lifespan; type: in vivo
Description: as §1
Survival for each cohort was also tracked throughout the study.
as §2

[6] = test system: male SOD1^G93A mice; assay: Compound muscle action potential (CMAP), sciatic nerve / tibialis anterior; type: in vivo
Description: Compound muscle action potential (CMAP) was measured in mice given CuPTSM, CuATSM, or vehicle. CMAP is an electrophysiological technique that assess functional integrity of motor axons. The sciatic nerve is stimulated using implanted microelectrodes proving small electrical currents, and the response is measured in the innervated tibialis anterior (TA) muscle using an implanted recording electrode. It is known that the CMAP signal is decreased in the case of neuromuscular diseases, like in ALS patients, and recapitulated in the SOD1^G93A mouse model due to motor unit loss. In male SOD1^G93A mice, it has been shown that CMAP changes may happen as early as age day 50 and invariably worse after. In the present study, mice were treated once a day for 14 days with 2, 6, or 12 mg/kg CuPTSM; 10 or 30 mg/kg CuATSM; or vehicle (control). A total of 9 male mice were tested for each condition.
Prior to drug administration and assignment of mice to a cohort, CMAP was recorded for each mouse to establish a baseline measurement. Mice were then randomized into each treatment cohort, and administered the respective compounds and dosages of the cohort via oral gavage daily for two weeks. CMAP data was recorded at the end of the two weeks, and compared to the baseline measurements to calculate percent of baseline to illustrate the efficacy of CuPTSM and CuATSM compared to just vehicle.

SMILES | absorption half-life ([1]; plasma) [h] | elimination half-life ([1]; plasma) [h] | plasma Cmax ([1]; plasma) [ng/mL] | Cmax ([1]; spinal cord) [ng/mL] | absorption half-life ([1]; spinal cord) [h] | elimination half-life ([1]; spinal cord) [h] | tolerability in mice [2] | onset of paresis compared to control ([4]; 6 mg/kg once a day) | survival compared to control ([5]; 6 mg/kg once a day) | further results
CN=C([S-])N/N=C/C(C)=N/NC([S-])=NC.[Cu+2] [CuPTSM, copper PTSM] | 0.54 | 2.44 | 1565 | 7.27 | 1.0 | 1.9 | toxic to mice | delaying onset over the control | increase in survival over the control counterparts | simulated plasma concentration before the next dose ([3]; 6 mg/kg): plasma levels returned to 0 ng/mL prior to the next dose; delay of onset of paresis compared to CuATSM 30 and 100 mg/kg groups (each over its respective control) ([4]; 6 mg/kg once a day): significantly delayed onset of paresis over CuATSM; survival compared to CuATSM 30 and 100 mg/kg groups ([5]; 6 mg/kg once a day): markedly improved survival; CMAP change from baseline compared to vehicle ([6]; 2 mg/kg oral gavage once a day for 14 days): significantly greater change from baseline; CMAP change from baseline compared to vehicle ([6]; 6 mg/kg oral gavage once a day for 14 days): significantly greater change from baseline; CMAP change from baseline compared to vehicle ([6]; 12 mg/kg oral gavage once a day for 14 days): significantly greater change from baseline
CN=C([S-])N/N=C(C)/C(C)=N/NC([S-])=NC.[Cu+2] [CuATSM] | 0.24 | 13.7 | 198 | 2 | 0.65 | 13.8 | well-tolerated | no significant improvement in onset of paresis | no significant difference in survival | simulated plasma concentration before the next dose ([3]; 30 mg/kg): did not return to 0 ng/mL prior the next dose; simulated plasma concentration before the next dose ([3]; 100 mg/kg): did not return to 0 ng/mL prior the next dose; onset of paresis compared to control ([4]; 30 mg/kg once a day): delaying onset over the control; onset of paresis compared to control ([4]; 100 mg/kg once a day): delaying onset over the control; survival compared to control ([5]; 30 mg/kg once a day): increase in survival over the control counterparts; survival compared to control ([5]; 100 mg/kg once a day): increase in survival over the control counterparts; CMAP change from baseline compared to vehicle ([6]; 10 mg/kg oral gavage once a day for 14 days): no significant difference in CMAP measurements; CMAP change from baseline compared to vehicle ([6]; 30 mg/kg oral gavage once a day for 14 days): no significant difference in CMAP measurements
